{"source": "patent US9255100B2", "about": "(BAYER INTELLECTUAL PROPERTY GMBH, priority 2010, dated 2016)", "key": {"[1]": {"molecular_target": "T1, N-terminally GST-tagged human full length recombinant Mps-1 kinase (Homo sapiens, UniProt P33981)", "T1 construct": "N-terminally GST-tagged human full length recombinant Mps-1 kinase; purchased Invitrogen, Karslruhe, Germany PV4071", "T1 sequence (P33981 1-857)": "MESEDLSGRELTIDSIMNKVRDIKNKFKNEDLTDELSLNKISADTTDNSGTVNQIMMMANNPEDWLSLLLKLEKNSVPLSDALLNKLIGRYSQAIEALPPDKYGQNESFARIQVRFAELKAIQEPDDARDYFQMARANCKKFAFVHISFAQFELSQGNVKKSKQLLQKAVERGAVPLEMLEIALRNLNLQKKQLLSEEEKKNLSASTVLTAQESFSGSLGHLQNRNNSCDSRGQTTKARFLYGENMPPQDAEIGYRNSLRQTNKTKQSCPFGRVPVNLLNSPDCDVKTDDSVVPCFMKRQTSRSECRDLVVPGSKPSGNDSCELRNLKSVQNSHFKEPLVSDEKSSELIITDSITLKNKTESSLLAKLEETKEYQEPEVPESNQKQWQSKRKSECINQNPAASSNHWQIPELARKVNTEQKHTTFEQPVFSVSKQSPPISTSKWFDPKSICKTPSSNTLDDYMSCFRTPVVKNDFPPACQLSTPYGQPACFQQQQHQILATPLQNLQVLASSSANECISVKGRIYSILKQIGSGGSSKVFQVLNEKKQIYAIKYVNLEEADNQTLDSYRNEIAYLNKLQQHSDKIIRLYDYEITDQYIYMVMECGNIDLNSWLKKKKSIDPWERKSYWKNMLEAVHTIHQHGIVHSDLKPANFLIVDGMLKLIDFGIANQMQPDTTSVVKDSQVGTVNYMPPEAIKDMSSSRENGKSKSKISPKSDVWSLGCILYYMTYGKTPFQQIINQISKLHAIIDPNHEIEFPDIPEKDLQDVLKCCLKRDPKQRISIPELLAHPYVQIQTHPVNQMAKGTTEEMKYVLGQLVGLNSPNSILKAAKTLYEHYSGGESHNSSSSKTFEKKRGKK", "experiment": "Mps-1 kinase assay (TR-FRET)", "assay_type": "biochemical", "conditions": "Mps1 IC50 [nM], 10 μM ATP, 1 μM peptide substrate, 60 min at 22° C.", "procedure,_shortened": "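TR-FRET signal between a Europium anti-phospho-Ser/Thr antibody and streptavidin-XLent reported phosphorylation of a biotinylated peptide by GST-tagged full-length Mps-1. Enzyme was near 1 nM final, chosen per lot for linearity.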"}, "[2]": {"tested_on": "Hepatocytes from Han Wistar rats", "experiment": "In vitro metabolic stability in rat hepatocytes (calculation of hepatic in vivo blood clearance and Fmax)", "assay_type": "in vitro ADME", "conditions": "for Fmax [%]: maximal oral bioavailability calculated from half-life in rat hepatocytes, 1 μM test compound", "procedure": "Investigation of In Vitro Metabolic Stability in Rat Hepatocytes (Including Calculation of Hepatic In Vivo Blood Clearance (CL))\nHepatocytes from Han Wistar rats were isolated via a 2-step perfusion method. After perfusion, the liver was carefully removed from the rat: the liver capsule was opened and the hepatocytes were gently shaken out into a Petri dish with ice-cold WME. The resulting cell suspension was filtered through sterile gaze in 50 ml falcon tubes and centrifuged at 50×g for 3 min at room temperature. The cell pellet was resuspended in 30 ml WME and centrifuged through a Percoll® gradient for 2 times at 100×g. The hepatocytes were washed again with Williams' medium E (WME) and resuspended in medium containing 5% FCS. Cell viability was determined by trypan blue exclusion.\nFor the metabolic stability assay liver cells were distributed in WME containing 5% FCS to glass vials at a density of 1.0×10^6 vital cells/ml. The test compound was added to a final concentration of 1 μM. During incubation, the hepatocyte suspensions were continuously shaken and aliquots were taken at 2, 8, 16, 30, 45 and 90 min, to which equal volumes of cold methanol were immediately added. Samples were frozen at −20° C. over night, after subsequently centrifuged for 15 minutes at 3000 rpm and the supernatant was analyzed with an Agilent 1200 HPLC-system with LCMS/MS detection.\nThe half-life of a test compound was determined from the concentration-time plot. From the half-life the intrinsic clearances were calculated. Together with the additional parameters liver blood flow, amount of liver cells in vivo and in vitro. The hepatic in vivo blood clearance (CL) and the maximal oral bioavailability (Fmax) was calculated. The following parameter values were used: Liver blood flow—4.2 L/h/kg rat; specific liver weight—32 g/kg rat body weight; liver cells in vivo—1.1×10^8 cells/g liver, liver cells in vitro—0.5×10^6/ml."}}}
{"compound": "Cc1cc(-c2cnc3c(NCC4CCOCC4)cc(Oc4cccc(F)c4)nn23)ccc1C(=O)NC1CC1", "note": "[Example 323, N-cyclopropyl-4-{6-(3-fluorophenoxy)-8-[(tetra-hydro-2H-pyran-4-yl-methyl)amino]imidazo[1,2-b]pyridazin-3-yl}-2-methylbenzamide]", "values": [{"measurement": "IC50", "setting": "[1]", "value": 0.2, "unit": "nM"}, {"measurement": "Fmax [%]", "setting": "[2]", "value": 31, "unit": "%"}]}
{"compound": "Cc1ccc(F)cc1Oc1cc(NCC(C)(C)O)c2ncc(-c3ccc(C(=O)NC4CC4)c(C)c3)n2n1", "note": "[Example 391, N-cyclopropyl-4-{6-(5-fluoro-2-methylphenoxy)-8-[(2-hydroxy-2-methylpropyl)amino]imidazo[1,2-b]pyridazin-3-yl}-2-methylbenzamide]", "values": [{"measurement": "IC50", "setting": "[1]", "value": 0.1, "unit": "nM"}, {"measurement": "Fmax [%]", "setting": "[2]", "value": 47, "unit": "%"}]}
{"compound": "CNc1cc(Oc2cccc(F)c2)nn2c(-c3ccc(C(=O)NC4CC4)c(C)c3)cnc12", "note": "[Example 510, N-cyclopropyl-4-[6-(3-fluoro-phenoxy)-8-(methylamino)imidazo[1,2-b]pyridazin-3-yl]-2-methylbenzamide]", "values": [{"measurement": "IC50", "setting": "[1]", "value": 0.1, "unit": "nM"}, {"measurement": "Fmax [%]", "setting": "[2]", "value": 39, "unit": "%"}]}
{"compound": "Cc1cc(-c2cnc3c(NCC4CCN(C)CC4)cc(Oc4cccc(F)c4F)nn23)ccc1C(=O)NC1CC1", "note": "[Example 526, N-cyclopropyl-4-[6-(2,3-difluorophenoxy)-8-{[(1-methylpiperidin-4-yl)-methyl]amino}imidazo[1,2-b]pyridazin-3-yl]-2-methylbenzamide]", "values": [{"measurement": "IC50", "setting": "[1]", "value": 0.1, "unit": "nM"}, {"measurement": "Fmax [%]", "setting": "[2]", "value": 50, "unit": "%"}]}
{"compound": "O=C(NC1CC1)c1ccc(-c2cnc3c(NCCC(F)(F)F)cc(Oc4cccc(F)c4)nn23)cc1", "note": "[Example 463, N-cyclopropyl-4-{6-(3-fluorophenoxy)-8-[(3,3,3-trifluoropropyl)amino]imidazo[1,2-b]pyridazin-3-yl}benzamide]", "values": [{"measurement": "Fmax [%]", "setting": "[2]", "value": 7, "unit": "%"}]}
{"compound": "Cc1cc(-c2cnc3c(NCCS(C)(=O)=O)cc(Oc4cccc(F)c4F)nn23)ccc1C(=O)NC1CC1", "note": "[Example 516, N-cyclopropyl-4-[6-(2,3-difluorophenoxy)-8-{[2-(methylsulfonyl)ethyl]amino}imidazo[1,2-b]pyridazin-3-yl]-2-methylbenzamide]", "values": [{"measurement": "IC50", "setting": "[1]", "value": 0.3, "unit": "nM"}, {"measurement": "Fmax [%]", "setting": "[2]", "value": 69, "unit": "%"}]}
{"compound": "Cc1cc(-c2cnc3c(NCCC(F)(F)F)cc(Oc4cccc(F)c4)nn23)ccc1C(=O)NC1CC1", "note": "[Example 80, N-cyclopropyl-4-{6-(3-fluorophenoxy)-8-[(3,3,3-trifluoropropyl)amino]imidazo[1,2-b]pyridazin-3-yl}-2-methylbenzamide]", "values": [{"measurement": "IC50", "setting": "[1]", "value": 0.2, "unit": "nM"}, {"measurement": "Fmax [%]", "setting": "[2]", "value": 56, "unit": "%"}, {"measurement": "increase of metabolic stability", "setting": "[2]; relative increase of Fmax (rat hepatocytes) against the comparison compound of the same table", "value": 81, "unit": "%"}]}
{"compound": "Cc1cc(-c2cnc3c(NCCC(F)(F)F)cc(Oc4cccc(F)c4)nn23)ccc1C(=O)NC1(C)CC1", "note": "[Example 461, 4-{6-(3-fluorophenoxy)-8-[(3,3,3-trifluoropropyl)amino]imidazo[1,2-b]pyridazin-3-yl}-2-methyl-N-(1-methylcyclopropyl)benzamide]", "values": [{"measurement": "IC50", "setting": "[1]", "value": 0.2, "unit": "nM"}, {"measurement": "Fmax [%]", "setting": "[2]", "value": 75, "unit": "%"}]}
{"compound": "COc1ccc(Oc2cc(NCC3CCOCC3)c3ncc(-c4ccc(C(=O)NC5CC5)c(C)c4)n3n2)c(F)c1", "note": "[Example 445, N-cyclopropyl-4-{6-(2-fluoro-4-methoxyphenoxy)-8-[(tetrahydro-2H-pyran-4-ylmethyl)amino]imidazo[1,2-b]pyridazin-3-yl}-2-methylbenzamide]", "values": [{"measurement": "IC50", "setting": "[1]", "value": 0.2, "unit": "nM"}, {"measurement": "Fmax [%]", "setting": "[2]", "value": 61, "unit": "%"}]}
{"compound": "COCCNc1cc(Oc2cccc(F)c2)nn2c(-c3ccc(C(=O)NC4CC4)c(C)c3)cnc12", "note": "[Example 492, N-cyclopropyl-4-{6-(3-fluoro-phenoxy)-8-[(2-methoxyethyl)amino]imidazo[1,2-b]pyridazin-3-yl}-2-methylbenzamide]", "values": [{"measurement": "IC50", "setting": "[1]", "value": 0.1, "unit": "nM"}, {"measurement": "Fmax [%]", "setting": "[2]", "value": 42, "unit": "%"}]}
{"compound": "Cc1cc(-c2cnc3c(NCCN4CCOCC4)cc(Oc4cccc(F)c4F)nn23)ccc1C(=O)NC1CC1", "note": "[Example 536, N-cyclopropyl-4-[6-(2,3-difluorophenoxy)-8-{[2-(morpholin-4-yl)ethyl]amino}imidazo[1,2-b]pyridazin-3-yl]-2-methylbenzamide]", "values": [{"measurement": "IC50", "setting": "[1]", "value": 0.3, "unit": "nM"}, {"measurement": "Fmax [%]", "setting": "[2]", "value": 37, "unit": "%"}]}
{"compound": "Cc1cc(-c2cnc3c(NCCN4CCOCC4)cc(Oc4cccc(F)c4)nn23)ccc1C(=O)NC1CC1", "note": "[Example 500, N-cyclopropyl-4-[6-(3-fluoro-phenoxy)-8-{[2-(morpholin-4-yl)ethyl]amino}imidazo[1,2-b]pyridazin-3-yl]-2-methylbenzamide]", "values": [{"measurement": "IC50", "setting": "[1]", "value": 0.1, "unit": "nM"}, {"measurement": "Fmax [%]", "setting": "[2]", "value": 40, "unit": "%"}]}
{"compound": "COc1ccc(Oc2cc(NCC3CCOCC3)c3ncc(-c4ccc(C(=O)NC5CC5)cc4)n3n2)c(F)c1", "note": "[Example 444, N-cyclopropyl-4-{6-(2-fluoro-4-methoxyphenoxy)-8-[(tetrahydro-2H-pyran-4-ylmethyl)amino]imidazo[1,2-b]pyridazin-3-yl}benzamide]", "values": [{"measurement": "Fmax [%]", "setting": "[2]", "value": 22, "unit": "%"}]}
{"compound": "Cc1ccc(F)cc1Oc1cc(NCCC(F)(F)F)c2ncc(-c3ccc(C(=O)NC4CC4)c(C)c3)n2n1", "note": "[Example 390, N-cyclopropyl-4-{6-(5-fluoro-2-methylphenoxy)-8-[(3,3,3-trifluoropropyl)amino]imidazo[1,2-b]pyridazin-3-yl}-2-methylbenzamide]", "values": [{"measurement": "IC50", "setting": "[1]", "value": 0.1, "unit": "nM"}, {"measurement": "Fmax [%]", "setting": "[2]", "value": 55, "unit": "%"}]}
{"compound": "Cc1cc(-c2cnc3c(NCCC(F)(F)F)cc(Sc4cccc(F)c4)nn23)ccc1C(=O)NC1CC1", "note": "[Example 209, N-cyclopropyl-4-{6-[(3-fluorophenyl)sulfanyl]-8-[(3,3,3-trifluoropropyl)amino]imidazo[1,2-b]pyridazin-3-yl}-2-methylbenzamide]", "values": [{"measurement": "IC50", "setting": "[1]", "value": 0.6, "unit": "nM"}]}
{"compound": "Cc1cc(-c2cnc3c(NCCC(F)(F)F)cc(S(=O)(=O)c4ccccc4)nn23)ccc1C(=O)NC1CC1", "note": "[Example 212, N-cyclopropyl-2-methyl-4-{6-(phenylsulfonyl)-8-[(3,3,3-trifluoropropyl)amino]imidazo[1,2-b]pyridazin-3-yl}benzamide]", "values": [{"measurement": "IC50", "setting": "[1]", "value": "< 1", "unit": "nM"}]}
{"compound": "C/C=C(\\C)c1cc(NCC(C)(C)O)c2ncc(-c3ccc(C(=O)NC4CC4)cc3OC)n2n1", "note": "[Example 72, 4-{6-[(2E)-But-2-en-2-yl]-8-[(2-hydroxy-2-methylpropyl)amino]imidazo[1,2-b]pyridazin-3-yl}-N-cyclopropyl-3-methoxybenzamide]", "values": [{"measurement": "IC50", "setting": "[1]", "value": 44.4, "unit": "nM"}]}
{"compound": "Cc1cc(-c2cnc3c(NCC4CCS(=O)(=O)CC4)cc(Sc4cccc(F)c4)nn23)ccc1C(=O)NC1CC1", "note": "[Example 301, N-cyclopropyl-4-(8-{[(1,1-dioxidotetrahydro-2H-thiopyran-4-yl)methyl]amino}-6-[(3-fluorophenyl)sulfanyl]imidazo[1,2-b]pyridazin-3-yl)-2-methylbenzamide]", "values": [{"measurement": "IC50", "setting": "[1]", "value": 0.2, "unit": "nM"}]}
